# According to ChEMBL document CHEMBL1140040, “Synthesis and cytotoxic activity of some novel polycyclic gamma-butyrolactones” (Bioorg Med Chem Lett, 2008):
# Key:
# HCT-15 [1] = assay: Cytotoxicity against human HCT15 cells assessed as age growth inhibition at 100 uM after 48 hrs by sulforhodamine B assay; format: functional; conditions: HCT-15, 48 h, read-out: GI
# HOP-62 [2] = assay: Cytotoxicity against human HOP62 cells assessed as age growth inhibition at 50 uM after 48 hrs by sulforhodamine B assay; format: functional; conditions: HOP-62, 48 h, read-out: GI
# SK-OV-3 [3] = assay: Cytotoxicity against human SKOV3 cells assessed as age growth inhibition at 50 uM after 48 hrs by sulforhodamine B assay; format: functional; conditions: SK-OV-3, 48 h, read-out: GI
# SF-295 [4] = assay: Antiproliferative activity against human SF295 cells after 48 hrs by sulforhodamine B assay; format: functional, cell-based; conditions: SF-295, 48 h
# HOP-62 [5] = assay: Cytotoxicity against human HOP62 cells assessed as age growth inhibition at 100 uM after 48 hrs by sulforhodamine B assay; format: functional; conditions: HOP-62, 48 h, read-out: GI
# HCT-15 [6] = assay: Cytotoxicity against human HCT15 cells assessed as age growth inhibition at 50 uM after 48 hrs by sulforhodamine B assay; format: functional; conditions: HCT-15, 48 h, read-out: GI
# IGROV-1 [7] = assay: Cytotoxicity against human IGROV1 cells assessed as age growth inhibition at 10 uM after 48 hrs by sulforhodamine B assay; format: functional; conditions: IGROV-1, 48 h, read-out: GI
# IGROV-1 [8] = assay: Cytotoxicity against human IGROV1 cells assessed as age growth inhibition at 100 uM after 48 hrs by sulforhodamine B assay; format: functional; conditions: IGROV-1, 48 h, read-out: GI
# HCT-15 [9] = assay: Antiproliferative activity against human HCT15 cells after 48 hrs by sulforhodamine B assay; format: functional, cell-based; conditions: HCT-15, 48 h
# SK-OV-3 [10] = assay: Cytotoxicity against human SKOV3 cells assessed as age growth inhibition at 100 uM after 48 hrs by sulforhodamine B assay; format: functional; conditions: SK-OV-3, 48 h, read-out: GI
# A549 [11] = assay: Cytotoxicity against human A549 cells assessed as age growth inhibition at 100 uM after 48 hrs by sulforhodamine B assay; format: functional; conditions: A549, 48 h, read-out: GI
# HOP-62 [12] = assay: Cytotoxicity against human HOP62 cells assessed as age growth inhibition at 10 uM after 48 hrs by sulforhodamine B assay; format: functional; conditions: HOP-62, 48 h, read-out: GI
# IGROV-1 [13] = assay: Antiproliferative activity against human IGROV1 cells after 48 hrs by sulforhodamine B assay; format: functional, cell-based; conditions: IGROV-1, 48 h
# HOP-62 [14] = assay: Antiproliferative activity against human HOP62 cells after 48 hrs by sulforhodamine B assay; format: functional, cell-based; conditions: HOP-62, 48 h
# COLO 205 [15] = assay: Cytotoxicity against human COLO205 cells assessed as age growth inhibition at 50 uM after 48 hrs by sulforhodamine B assay; format: functional; conditions: COLO 205, 48 h, read-out: GI
# A549 [16] = assay: Cytotoxicity against human A549 cells assessed as age growth inhibition at 50 uM after 48 hrs by sulforhodamine B assay; format: functional; conditions: A549, 48 h, read-out: GI
# SF-295 [17] = assay: Cytotoxicity against human SF295 cells assessed as age growth inhibition at 10 uM after 48 hrs by sulforhodamine B assay; format: functional; conditions: SF-295, 48 h, read-out: GI
# DU-145 [18] = assay: Antiproliferative activity against human DU145 cells after 48 hrs by sulforhodamine B assay; format: functional, cell-based; conditions: DU-145, 48 h
# SF-295 [19] = assay: Cytotoxicity against human SF295 cells assessed as age growth inhibition at 100 uM after 48 hrs by sulforhodamine B assay; format: functional; conditions: SF-295, 48 h, read-out: GI
# DU-145 [20] = assay: Cytotoxicity against human DU145 cells assessed as age growth inhibition at 50 uM after 48 hrs by sulforhodamine B assay; format: functional; conditions: DU-145, 48 h, read-out: GI
# HEp-2 [21] = assay: Cytotoxicity against human HEP2 cells assessed as age growth inhibition at 100 uM after 48 hrs by sulforhodamine B assay; format: functional; conditions: HEp-2, 48 h, read-out: GI
# HEp-2 [22] = assay: Cytotoxicity against human HEP2 cells assessed as age growth inhibition at 50 uM after 48 hrs by sulforhodamine B assay; format: functional; conditions: HEp-2, 48 h, read-out: GI
# SF-295 [23] = assay: Cytotoxicity against human SF295 cells assessed as age growth inhibition at 50 uM after 48 hrs by sulforhodamine B assay; format: functional; conditions: SF-295, 48 h, read-out: GI
# COLO 205 [24] = assay: Cytotoxicity against human COLO205 cells assessed as age growth inhibition at 10 uM after 48 hrs by sulforhodamine B assay; format: functional; conditions: COLO 205, 48 h, read-out: GI
# SK-OV-3 [25] = assay: Antiproliferative activity against human SKOV3 cells after 48 hrs by sulforhodamine B assay; format: functional, cell-based; conditions: SK-OV-3, 48 h
# HEp-2 [26] = assay: Cytotoxicity against human HEP2 cells assessed as age growth inhibition at 10 uM after 48 hrs by sulforhodamine B assay; format: functional; conditions: HEp-2, 48 h, read-out: GI
# HCT-15 [27] = assay: Cytotoxicity against human HCT15 cells assessed as age growth inhibition at 10 uM after 48 hrs by sulforhodamine B assay; format: functional; conditions: HCT-15, 48 h, read-out: GI
# IGROV-1 [28] = assay: Cytotoxicity against human IGROV1 cells assessed as age growth inhibition at 50 uM after 48 hrs by sulforhodamine B assay; format: functional; conditions: IGROV-1, 48 h, read-out: GI
# COLO 205 [29] = assay: Cytotoxicity against human COLO205 cells assessed as age growth inhibition at 100 uM after 48 hrs by sulforhodamine B assay; format: functional; conditions: COLO 205, 48 h, read-out: GI
# A549 [30] = assay: Antiproliferative activity against human A549 cells after 48 hrs by sulforhodamine B assay; format: functional, cell-based; conditions: A549, 48 h
# DU-145 [31] = assay: Cytotoxicity against human DU145 cells assessed as age growth inhibition at 100 uM after 48 hrs by sulforhodamine B assay; format: functional; conditions: DU-145, 48 h, read-out: GI
# HEp-2 [32] = assay: Antiproliferative activity against human HEP2 cells after 48 hrs by sulforhodamine B assay; format: functional, cell-based; conditions: HEp-2, 48 h
# COLO 205 [33] = assay: Antiproliferative activity against human COLO205 cells after 48 hrs by sulforhodamine B assay; format: functional, cell-based; conditions: COLO 205, 48 h
# DU-145 [34] = assay: Cytotoxicity against human DU145 cells assessed as age growth inhibition at 10 uM after 48 hrs by sulforhodamine B assay; format: functional; conditions: DU-145, 48 h, read-out: GI
# A549 [35] = assay: Cytotoxicity against human A549 cells assessed as age growth inhibition at 10 uM after 48 hrs by sulforhodamine B assay; format: functional; conditions: A549, 48 h, read-out: GI
# SK-OV-3 [36] = assay: Cytotoxicity against human SKOV3 cells assessed as age growth inhibition at 10 uM after 48 hrs by sulforhodamine B assay; format: functional; conditions: SK-OV-3, 48 h, read-out: GI
# IGROV-1 [37] = assay: Cytotoxicity against human IGROV1 cells assessed as age growth inhibition at 20 uM after 48 hrs by sulforhodamine B assay; format: functional; conditions: IGROV-1, 48 h, read-out: GI
# HOP-62 [38] = assay: Cytotoxicity against human HOP62 cells assessed as age growth inhibition at 20 uM after 48 hrs by sulforhodamine B assay; format: functional; conditions: HOP-62, 48 h, read-out: GI
# A549 [39] = assay: Cytotoxicity against human A549 cells assessed as age growth inhibition at 20 uM after 48 hrs by sulforhodamine B assay; format: functional; conditions: A549, 48 h, read-out: GI
# SF-295 [40] = assay: Cytotoxicity against human SF295 cells assessed as age growth inhibition at 20 uM after 48 hrs by sulforhodamine B assay; format: functional; conditions: SF-295, 48 h, read-out: GI
# HEp-2 [41] = assay: Cytotoxicity against human HEP2 cells assessed as age growth inhibition at 20 uM after 48 hrs by sulforhodamine B assay; format: functional; conditions: HEp-2, 48 h, read-out: GI
# DU-145 [42] = assay: Cytotoxicity against human DU145 cells assessed as age growth inhibition at 20 uM after 48 hrs by sulforhodamine B assay; format: functional; conditions: DU-145, 48 h, read-out: GI
# COLO 205 [43] = assay: Cytotoxicity against human COLO205 cells assessed as age growth inhibition at 20 uM after 48 hrs by sulforhodamine B assay; format: functional; conditions: COLO 205, 48 h, read-out: GI
# SK-OV-3 [44] = assay: Cytotoxicity against human SKOV3 cells assessed as age growth inhibition at 20 uM after 48 hrs by sulforhodamine B assay; format: functional; conditions: SK-OV-3, 48 h, read-out: GI
# HCT-15 [45] = assay: Cytotoxicity against human HCT15 cells assessed as age growth inhibition at 20 uM after 48 hrs by sulforhodamine B assay; format: functional; conditions: HCT-15, 48 h, read-out: GI
structure (smiles),measurement,setting,value
CC1(C)CCC[C@@]2(C)C1=C[C@H]1C(=O)O[C@H](c3ccc(C#N)cc3)[C@H]12,inhibition of growth at 100 µM,HCT-15 [1],30%
same,inhibition of growth at 50 µM,HOP-62 [2],9%
same,inhibition of growth at 50 µM,SK-OV-3 [3],25%
same,IC50,SF-295 [4],> 100 µM
same,inhibition of growth at 100 µM,HOP-62 [5],18%
same,inhibition of growth at 50 µM,HCT-15 [6],25%
same,inhibition of growth at 10 µM,IGROV-1 [7],6%
same,inhibition of growth at 100 µM,IGROV-1 [8],29%
same,IC50,HCT-15 [9],> 100 µM
same,inhibition of growth at 100 µM,SK-OV-3 [10],27%
same,inhibition of growth at 100 µM,A549 [11],25%
same,inhibition of growth at 10 µM,HOP-62 [12],5%
same,IC50,IGROV-1 [13],> 100 µM
same,IC50,HOP-62 [14],> 100 µM
same,inhibition of growth at 50 µM,COLO 205 [15],24%
same,inhibition of growth at 50 µM,A549 [16],24%
same,inhibition of growth at 10 µM,SF-295 [17],12%
same,IC50,DU-145 [18],> 100 µM
same,inhibition of growth at 100 µM,SF-295 [19],20%
same,inhibition of growth at 50 µM,DU-145 [20],22%
same,inhibition of growth at 100 µM,HEp-2 [21],19%
same,inhibition of growth at 50 µM,HEp-2 [22],18%
same,inhibition of growth at 50 µM,SF-295 [23],17%
same,inhibition of growth at 10 µM,COLO 205 [24],2%
same,IC50,SK-OV-3 [25],> 100 µM
same,inhibition of growth at 10 µM,HEp-2 [26],5%
same,inhibition of growth at 10 µM,HCT-15 [27],14%
same,inhibition of growth at 50 µM,IGROV-1 [28],25%
same,inhibition of growth at 100 µM,COLO 205 [29],24%
same,IC50,A549 [30],> 100 µM
same,inhibition of growth at 100 µM,DU-145 [31],25%
same,IC50,HEp-2 [32],> 100 µM
same,IC50,COLO 205 [33],> 100 µM
same,inhibition of growth at 10 µM,DU-145 [34],16%
same,inhibition of growth at 10 µM,A549 [35],15%
same,inhibition of growth at 10 µM,SK-OV-3 [36],17%
O=c1[nH]cc(F)c(=O)[nH]1 [FLUOROURACIL],inhibition of growth at 20 µM,IGROV-1 [37],29%
same,inhibition of growth at 20 µM,HOP-62 [38],37%
same,inhibition of growth at 20 µM,A549 [39],57%
same,inhibition of growth at 20 µM,SF-295 [40],11%
same,inhibition of growth at 20 µM,HEp-2 [41],77%
same,inhibition of growth at 20 µM,DU-145 [42],29%
same,inhibition of growth at 20 µM,COLO 205 [43],27%
same,inhibition of growth at 20 µM,SK-OV-3 [44],46%
same,inhibition of growth at 20 µM,HCT-15 [45],30%
